The assay addresses T1, Pol theta (1-899) (Homo sapiens, UniProt O75417).
T1 construct: Pol theta (1-899) (5 nM) in assay buffer
Put plainly: Pol theta ATPase activity, NADH oxidation-coupled enzymatic assay (ATPase NADH coupling: Standard Screening: hPolQ). It counts as biochemical. The conditions noted are these: Pol theta (1-899) 5 nM, NADH oxidation-coupled ATPase assay; compounds of Table 3. In a few lines:
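NADH-coupled ATPase readout: 5 nM Pol theta (1-899) preincubated 15 min with 10-point compound series in Tris pH 7.80, KCl, MgCl2, DTT, BSA, Tween, glycerol, then 100 μM ATP, 300 nM 50-mer poly-dT ssDNA, NADH, PEP, LDH and PK added (stock levels). A340 followed 60 min; slopes fit four-parameter for IC50.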
T1 sequence (O75417 1-899): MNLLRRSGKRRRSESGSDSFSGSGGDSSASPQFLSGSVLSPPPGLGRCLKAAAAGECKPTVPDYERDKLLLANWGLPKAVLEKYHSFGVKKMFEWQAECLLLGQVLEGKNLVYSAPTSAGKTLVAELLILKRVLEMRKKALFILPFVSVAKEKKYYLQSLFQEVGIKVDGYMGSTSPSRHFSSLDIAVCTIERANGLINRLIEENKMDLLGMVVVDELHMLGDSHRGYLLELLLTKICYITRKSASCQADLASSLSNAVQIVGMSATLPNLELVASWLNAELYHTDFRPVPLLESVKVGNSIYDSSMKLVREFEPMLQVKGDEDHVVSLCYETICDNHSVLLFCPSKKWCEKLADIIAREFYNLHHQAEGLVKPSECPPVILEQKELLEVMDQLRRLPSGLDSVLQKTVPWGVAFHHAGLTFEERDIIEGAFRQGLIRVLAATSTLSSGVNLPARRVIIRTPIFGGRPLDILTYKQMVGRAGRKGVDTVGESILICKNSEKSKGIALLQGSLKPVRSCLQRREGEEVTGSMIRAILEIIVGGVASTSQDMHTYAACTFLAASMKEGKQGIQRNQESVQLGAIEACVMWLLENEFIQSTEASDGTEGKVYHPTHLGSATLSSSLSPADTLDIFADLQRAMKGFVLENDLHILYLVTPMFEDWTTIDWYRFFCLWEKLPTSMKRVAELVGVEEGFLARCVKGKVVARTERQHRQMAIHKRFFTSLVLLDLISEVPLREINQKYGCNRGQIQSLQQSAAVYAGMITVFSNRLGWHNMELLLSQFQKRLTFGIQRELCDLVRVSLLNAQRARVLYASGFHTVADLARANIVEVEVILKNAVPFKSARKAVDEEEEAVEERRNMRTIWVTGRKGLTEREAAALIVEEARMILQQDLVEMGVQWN
Broadly, the IC50 is the concentration at which inhibition is half-maximal. A higher IC50 goes with lower potency. `COc1nnc(NC(=O)c2cnc(C)cc2-c2cnc(C#N)nc2)s1` [Example 444, 4-(2-cyanopyrimidin-5-yl)-N-(5-methoxy-1,3,4-thiadiazol-2-yl)-6-methylnicotinamide] returned an IC50 of 1000 to 10000 nM.

`COc1ccc(-c2cc(C)ncc2C(=O)Nc2nnc(OC)s2)c(F)c1` [Example 445, 4-(2-fluoro-4-methoxyphenyl)-N-(5-methoxy-1,3,4-thiadiazol-2-yl)-6-methylnicotinamide] displayed an IC50 of 1000 to 10000 nM.

Consider `COc1nnc(NC(=O)c2cnc(C)cc2-c2cccc(OC)c2F)s1` [Example 446, 4-(2-fluoro-3-methoxyphenyl)-N-(5-methoxy-1,3,4-thiadiazol-2-yl)-6-methylpyridine-3-carboxamide], for which the IC50 was 1000 to 10000 nM.

As to `COc1ccc(F)c(-c2cc(C)ncc2C(=O)Nc2nnc(OC)s2)c1` [Example 447, 4-(2-fluoro-5-methoxyphenyl)-N-(5-methoxy-1,3,4-thiadiazol-2-yl)-6-methylpyridine-3-carboxamide], the IC50 lay in the range of 500 to 1000 nM.

The molecule `COc1nnc(NC(=O)c2cnc(C)cc2-c2ccc(OC(F)F)cc2)s1` [Example 448, 4-[4-(difluoromethoxy)phenyl]-N-(5-methoxy-1,3,4-thiadiazol-2-yl)-6-methylpyridine-3-carboxamide] showed an IC50 of 1000 to 10000 nM.

For the molecule `COc1nnc(NC(=O)c2cnc(C)cc2-c2ccc3c(cnn3C)c2)s1` [Example 449, N-(5-methoxy-1,3,4-thiadiazol-2-yl)-6-methyl-4-(1-methyl-1H-indazol-5-yl)pyridine-3-carboxamide], the IC50 lay within 500 to 1000 nM.

Consider `COc1nnc(NC(=O)c2cnc(C)cc2-c2ccc(F)c(C(F)(F)F)c2)s1` [Example 450, 4-[4-fluoro-3-(trifluoromethyl)phenyl]-N-(5-methoxy-1,3,4-thiadiazol-2-yl)-6-methylpyridine-3-carboxamide], for which the IC50 is not above 200 nM.

The molecule `COc1nnc(NC(=O)c2cnc(C)cc2-c2cn[nH]c2)s1` [Example 451, N-(5-methoxy-1,3,4-thiadiazol-2-yl)-6-methyl-4-(1H-pyrazol-4-yl)nicotinamide] gave an IC50 of 1000 to 10000 nM.

As for `COc1nnc(NC(=O)c2cnc(C)cc2-c2cccc(O)c2)s1` [Example 452, 4-(3-hydroxyphenyl)-N-(5-methoxy-1,3,4-thiadiazol-2-yl)-6-methylpyridine-3-carboxamide], the IC50 lay within 1000 to 10000 nM.

Molecule `COc1nnc(NC(=O)c2cnc(C)cc2-c2cccc(-c3ccn(C)n3)c2)s1` [Example 453, N-(5-methoxy-1,3,4-thiadiazol-2-yl)-6-methyl-4-[3-(1-methyl-1H-pyrazol-3-yl)phenyl]pyridine-3-carboxamide] displayed an IC50 of 1000 to 10000 nM.

The molecule `COc1nnc(NC(=O)c2cnc(C)cc2-c2ccccc2C#N)s1` [Example 454, 4-(2-cyanophenyl)-N-(5-methoxy-1,3,4-thiadiazol-2-yl)-6-methylpyridine-3-carboxamide] gave an IC50 of 1000 to 10000 nM.

Consider `COc1nnc(NC(=O)c2cnc(C)cc2-c2ccc(S(C)(=O)=O)nc2)s1` [Example 455, N-(5-methoxy-1,3,4-thiadiazol-2-yl)-6′-methyl-6-(methylsulfonyl)-[3,4′-bipyridine]-3′-carboxamide], for which the IC50 lay within 1000 to 10000 nM.

`COc1nnc(NC(=O)c2cnc(C)cc2-c2cnn(-c3ccccc3)c2C)s1` [Example 456, N-(5-methoxy-1,3,4-thiadiazol-2-yl)-6-methyl-4-(5-methyl-1-phenyl-1H-pyrazol-4-yl)pyridine-3-carboxamide]: the concentration for half-maximal inhibition (IC50) was in the range of 1000 to 10000 nM.

The molecule `COc1nnc(NC(=O)c2cnc(C)cc2-c2cnc(N(C)C)nc2)s1` [Example 458, 4-(2-(dimethylamino)pyrimidin-5-yl)-N-(5-methoxy-1,3,4-thiadiazol-2-yl)-6-methylnicotinamide] registered an IC50 of 1000 to 10000 nM.

Molecule `CCc1ccc(-c2cc(C)ncc2C(=O)Nc2nnc(OC)s2)cc1` [Example 459, 4-(4-ethylphenyl)-N-(5-methoxy-1,3,4-thiadiazol-2-yl)-6-methylpyridine-3-carboxamide] showed an IC50 of 1000 to 10000 nM.

Turning to `COc1nnc(NC(=O)c2cnc(C)cc2-c2cnn(-c3ccccc3)c2)s1` [Example 460, N-(5-methoxy-1,3,4-thiadiazol-2-yl)-6-methyl-4-(1-phenyl-1H-pyrazol-4-yl)nicotinamide], the IC50 lay in the range of 1000 to 10000 nM.

`COc1nnc(NC(=O)c2cnc(C)cc2-c2cccnc2C)s1` [Example 461, N-(5-methoxy-1,3,4-thiadiazol-2-yl)-2,6′-dimethyl-[3,4′-bipyridine]-3′-carboxamide]: the IC50 lay within 1000 to 10000 nM.

For the molecule `COc1ccc(-c2cc(C)ncc2C(=O)Nc2nnc(OC)s2)c(OC)c1` [Example 462, 4-(2,4-dimethoxyphenyl)-N-(5-methoxy-1,3,4-thiadiazol-2-yl)-6-methylpyridine-3-carboxamide], the IC50 is 200 to 500 nM.

Molecule `COc1cc(C)c(-c2cc(C)ncc2C(=O)Nc2nnc(OC)s2)cn1` [Example 463, 6-methoxy-N-(5-methoxy-1,3,4-thiadiazol-2-yl)-4,6′-dimethyl-[3,4′-bipyridine]-3′-carboxamide] had an IC50 of 1000 to 10000 nM.

Regarding `COc1nnc(NC(=O)c2cnc(C)cc2-c2cn(C)c3ccccc23)s1` [Example 464, N-(5-methoxy-1,3,4-thiadiazol-2-yl)-6-methyl-4-(1-methyl-1H-indol-3-yl)pyridine-3-carboxamide], the IC50 fell in the range of 1000 to 10000 nM.

`COc1nnc(NC(=O)c2cnc(C)cc2-c2ccc(C(=O)O)c(F)c2)s1` [Example 465, 2-fluoro-4-(5-((5-methoxy-1,3,4-thiadiazol-2-yl)carbamoyl)-2-methylpyridin-4-yl)benzoic acid]: the IC50 was in the range of 1000 to 10000 nM.

`COc1nnc(NC(=O)c2cnc(C)cc2-c2cccc(OCC#N)c2)s1` [Example 466, 4-[3-(cyanomethoxy)phenyl]-N-(5-methoxy-1,3,4-thiadiazol-2-yl)-6-methylpyridine-3-carboxamide] had an IC50 of 1000 to 10000 nM.

In the case of `COc1nnc(NC(=O)c2cnc(C)cc2-c2ccnc(C(F)(F)F)c2)s1` [Example 467, N-(5-methoxy-1,3,4-thiadiazol-2-yl)-6-methyl-2′-(trifluoromethyl)-[4,4′-bipyridine]-3-carboxamide], the IC50 lay in the range of 500 to 1000 nM.

For the molecule `COc1nnc(NC(=O)c2cnc(C)cc2-c2cnn(Cc3ccccc3)c2)s1` [Example 468, 4-(1-benzyl-1H-pyrazol-4-yl)-N-(5-methoxy-1,3,4-thiadiazol-2-yl)-6-methylnicotinamide], the IC50 was 1000 to 10000 nM.

`COc1nnc(NC(=O)c2cnc(C)cc2-c2cc(C)nc(C)c2)s1` [Example 469, N-(5-methoxy-1,3,4-thiadiazol-2-yl)-2′,6,6′-trimethyl-[4,4′-bipyridine]-3-carboxamide] gave an IC50 of 200 to 500 nM.

With `COc1nnc(NC(=O)c2cnc(C)cc2-c2ccc3ncncc3c2)s1` [Example 470, N-(5-methoxy-1,3,4-thiadiazol-2-yl)-6-methyl-4-(quinazolin-6-yl)pyridine-3-carboxamide], the IC50 was in the range of 1000 to 10000 nM.

`COc1nnc(NC(=O)c2cnc(C)cc2-c2cncc(F)c2)s1` [Example 471, 5-fluoro-N-(5-methoxy-1,3,4-thiadiazol-2-yl)-6′-methyl-[3,4′-bipyridine]-3′-carboxamide]: the IC50 was in the range of 1000 to 10000 nM.

Turning to `COc1nnc(NC(=O)c2cnc(C)cc2-c2cccc(CC(N)=O)c2)s1` [Example 472, 4-[3-(carbamoylmethyl)phenyl]-N-(5-methoxy-1,3,4-thiadiazol-2-yl)-6-methylpyridine-3-carboxamide], the IC50 was in the range of 1000 to 10000 nM.

The molecule `COc1nnc(NC(=O)c2cnc(C)cc2-c2ccc(OC(C)C)c(C#N)c2)s1` [Example 473, 4-[3-cyano-4-(propan-2-yloxy)phenyl]-N-(5-methoxy-1,3,4-thiadiazol-2-yl)-6-methylpyridine-3-carboxamide] gave an IC50 not above 200 nM.

The molecule `COc1nnc(NC(=O)c2cnc(C)cc2-c2ccc(CN(C)C)nc2)s1` [Example 474, 6-((dimethylamino)methyl)-N-(5-methoxy-1,3,4-thiadiazol-2-yl)-6′-methyl-[3,4′-bipyridine]-3′-carboxamide] returned an IC50 of 1000 to 10000 nM.

`COc1nnc(NC(=O)c2cnc(C)cc2-c2ccc(F)c(F)c2C)s1` [Example 475, 4-(3,4-difluoro-2-methylphenyl)-N-(5-methoxy-1,3,4-thiadiazol-2-yl)-6-methylpyridine-3-carboxamide]: the IC50 lay in the range of 500 to 1000 nM.

Molecule `COc1nnc(NC(=O)c2cnc(C)cc2-c2ccc(N3CCCCC3)cc2)s1` [Example 476, N-(5-methoxy-1,3,4-thiadiazol-2-yl)-6-methyl-4-[4-(piperidin-1-yl)phenyl]pyridine-3-carboxamide] came in with an IC50 of 1000 to 10000 nM.

In the case of `COc1nnc(NC(=O)c2cnc(C)cc2-c2cccc(CC#N)c2)s1` [Example 477, 4-[3-(cyanomethyl)phenyl]-N-(5-methoxy-1,3,4-thiadiazol-2-yl)-6-methylpyridine-3-carboxamide], the IC50 was 1000 to 10000 nM.

As to `COc1nnc(NC(=O)c2cnc(C)cc2-c2cccc(N3CCCCC3)c2)s1` [Example 478, N-(5-methoxy-1,3,4-thiadiazol-2-yl)-6-methyl-4-[3-(piperidin-1-yl)phenyl]pyridine-3-carboxamide], the IC50 was 1000 to 10000 nM.

`CNC(=O)c1ccc(-c2cc(C)ncc2C(=O)Nc2nnc(OC)s2)cn1` [Example 479, N3′-(5-methoxy-1,3,4-thiadiazol-2-yl)-N6,6′-dimethyl-[3,4′-bipyridine]-3′,6-dicarboxamide] returned an IC50 of 1000 to 10000 nM.

Consider `COc1nnc(NC(=O)c2cnc(C)cc2-c2ccc3ccn(C)c3c2)s1` [Example 480, N-(5-methoxy-1,3,4-thiadiazol-2-yl)-6-methyl-4-(1-methyl-1H-indol-6-yl)pyridine-3-carboxamide], for which the IC50 was in the range of 1000 to 10000 nM.

Take `COc1nnc(NC(=O)c2cnc(C)cc2-c2cnccc2C(F)(F)F)s1` [Example 481, N-(5-methoxy-1,3,4-thiadiazol-2-yl)-6′-methyl-4-(trifluoromethyl)-[3,4′-bipyridine]-3′-carboxamide]: the IC50 lay within 1000 to 10000 nM.

(Values after US20240287080A1 (IDEAYA Biosciences Inc., priority 2021, published 2024).)
